From patent publication US9556201B2, “Bicyclic pyridines and analogs as sirtuin modulators” (GLAXOSMITHKLINE LLC, priority 2009, dated 2017)

Biological target: T1, SIRT1 (Homo sapiens, UniProt Q96EB6)
T1 sequence (Q96EB6 1-747): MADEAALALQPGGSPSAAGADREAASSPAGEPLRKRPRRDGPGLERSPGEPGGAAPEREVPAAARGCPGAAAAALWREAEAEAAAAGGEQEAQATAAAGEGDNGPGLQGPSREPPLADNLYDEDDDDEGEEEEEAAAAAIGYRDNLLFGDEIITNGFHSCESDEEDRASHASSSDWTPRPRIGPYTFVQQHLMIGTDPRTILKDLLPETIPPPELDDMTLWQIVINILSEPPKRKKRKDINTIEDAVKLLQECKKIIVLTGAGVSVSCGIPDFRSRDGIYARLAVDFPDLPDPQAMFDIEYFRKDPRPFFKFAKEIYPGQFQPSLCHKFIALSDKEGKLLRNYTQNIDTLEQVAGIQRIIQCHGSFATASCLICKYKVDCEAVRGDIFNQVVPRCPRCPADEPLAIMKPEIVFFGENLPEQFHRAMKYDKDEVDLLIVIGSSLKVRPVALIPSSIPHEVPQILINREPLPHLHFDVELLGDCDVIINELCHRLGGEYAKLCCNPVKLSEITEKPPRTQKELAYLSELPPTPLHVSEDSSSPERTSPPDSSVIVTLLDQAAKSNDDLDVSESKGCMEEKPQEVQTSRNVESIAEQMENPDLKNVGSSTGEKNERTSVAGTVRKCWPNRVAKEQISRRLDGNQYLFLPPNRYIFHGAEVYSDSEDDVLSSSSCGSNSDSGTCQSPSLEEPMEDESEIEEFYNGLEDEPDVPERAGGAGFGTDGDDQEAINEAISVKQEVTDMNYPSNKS
Assay: Mass spectrometry based assay to identify modulators of SIRT1 activity (deacetylation of p53-based acetylated peptide substrate)
Format: biochemical
Details: for Emax: 25 min, read-out: % FOLD ACT. (percent maximum fold activation); for Emax / EC1.5: SIRT1 activation
Text: A mass spectrometry based assay was used to identify modulators of SIRT1 activity. The mass spectrometry based assay utilizes a peptide having 20 amino acid residues as follows: Ac-EE-K(biotin)-GQSTSSHSK(Ac)NleSTEG-K(5TMR)-EE-NH2 (SEQ ID NO: 1) wherein K(Ac) is an acetylated lysine residue and Nle is a norleucine. The peptide is labeled with the fluorophore 5TMR (excitation 540 nm/emission 580 nm) at the C-terminus. The sequence of the peptide substrate is based on p53 with several modifications. In addition, the methionine residue naturally present in the sequence was replaced with the norleucine because the methionine may be susceptible to oxidation during synthesis and purification.
The mass spectrometry assay is conducted as follows: […] peptide substrate and 120 μM βNAD^+ is incubated with 10 nM SIRT1 for 25 minutes at 25° C. in a reaction buffer (50 mM Tris-acetate pH 8, 137 mM NaCl, 2.7 mM KCl, 1 mM MgCl2, 5 mM DTT, 0.05% BSA). Test compounds may be added to the reaction as described above. The SirT1 gene is cloned into a T7-promoter containing vector and transformed into BL21(DE3). After the 25 minute incubation with SIRT1, 10 μL of 10% formic acid is added to stop the reaction. Reactions are sealed and frozen for later mass spec analysis. Determination of the mass of the substrate peptide allows for precise determination of the degree of acetylation (i.e. starting material) as compared to deacetylated peptide (product).
A control for inhibition of sirtuin activity is conducted by adding 1 μL of 500 mM nicotinamide as a negative control at the start of the reaction (e.g., permits determination of maximum sirtuin inhibition). A control for activation of sirtuin activity is conducted using 10 nM of sirtuin protein, with 1 μL of DMSO in place of compound, to determine the amount of deacetylation of the substrate at a given timepoint within the linear range of the assay. This timepoint is the same as that used for test compounds and, within the linear range, the endpoint represents a change in velocity.
For the above assay, SIRT1 protein was expressed and purified as follows. The SirT1 gene was cloned into a T7-promoter containing vector and transformed into BL21(DE3). The protein was expressed by induction with 1 mM IPTG as an N-terminal His-tag fusion protein at 18° C. overnight and harvested at 30,000×g. Cells were lysed with lysozyme in lysis buffer (50 mM Tris-HCl, 2 mM Tris[2-carboxyethyl]phosphine (TCEP), 10 μM ZnCl2, 200 mM NaCl) and further treated with sonication for 10 min for complete lysis. The protein was purified over a Ni-NTA column (Amersham) and fractions containing pure protein were pooled, concentrated and run over a sizing column (Sephadex S200 26/60 global). The peak containing soluble protein was collected and run on an Ion-exchange column (MonoQ). Gradient elution (200 mM-500 mM NaCl) yielded pure protein. This protein was concentrated and dialyzed against dialysis buffer (20 mM Tris-HCl, 2 mM TCEP) overnight. The protein was aliquoted and frozen at −80° C. until further use.

Row | SMILES | EC1.5 (concentration giving 1.5-fold activation) [µM] | Emax [%] | EC1.5
1 | CCN1C(=O)CCN(C(=O)Nc2cccc(OC[C@@H](O)CO)n2)c2nc(-c3cccc(Cl)c3)ccc21 [Compound 788] | > 25 | ≤ 200 | –
2 | Cc1ccc(-c2ccc3c(n2)N(C(=O)Nc2ccnc(C)c2)CCCO3)cn1 [Compound 635] | – | ≤ 200 | C (EC1.5>25 μM)
3 | COc1nccc(NC(=O)N2CCCOc3ccc(-c4cccc(Cl)c4)nc32)n1 [Compound 854] | 1 to 25 | > 200 | –
4 | O=C(Nc1ccncc1)N1CCOc2cnc(-c3cccc(Cl)c3)nc21 [Compound 720] | 1 to 25 | ≤ 200 | –
5 | CN(C)c1nc(-c2cccc(F)c2)nc2c1OCCN2C(=O)Nc1ccncn1 [Compound 757] | > 25 | ≤ 200 | –
6 | O=C(Nc1ccc(F)cn1)N1CCCCc2ccc(-c3cccc(Cl)c3)nc21 [Compound 735] | > 25 | ≤ 200 | –
7 | Cc1cc(NC(=O)N2CCOc3c(N4CCOCC4)nc(-c4cccc(F)c4)nc32)cc(C)n1 [Compound 739] | 1 to 25 | ≤ 200 | –
8 | O=C(Nc1ccncc1)N1CCCc2ccc(-c3cccc(Cl)c3)nc21 [Compound 651] | – | > 200 | A (EC1.5<1.0 μM)
9 | O=C(Nc1ccccn1)N1CCCOc2ccc(-c3cccc(Cl)c3)nc21 [Compound 761] | 1 to 25 | > 200 | –
10 | CC1(C)CCN(C(=O)Nc2ccncc2)c2nc(-c3cccc(Cl)c3)ccc2C1=O [Compound 832] | 1 to 25 | ≤ 200 | –
11 | Cc1ccnc(NC(=O)N2CCCOc3ccc(-c4cccc(Cl)c4)nc32)c1 [Compound 763] | 1 to 25 | > 200 | –
12 | CN(C)c1nc(-c2cccc(F)c2)nc2c1OCCN2C(=O)Nc1ccncc1 [Compound 736, 4-(dimethylamino)-2-(3-fluorophenyl)-N-(pyridin-4-yl)-6H-pyrimido[5,4-b][1,4]oxazine-8(7H)-carboxamide] | > 25 | ≤ 200 | –
13 | O=C(Nc1ccccn1)N1CCCc2ccc(-c3cccc(F)c3)nc21 [Compound 649] | – | > 200 | A (EC1.5<1.0 μM)
14 | O=C(Nc1cncc(OCC(O)CO)n1)N1CCCOc2ccc(-c3cccc(Cl)c3)nc21 (stereo not drawn) [Compound 858] | < 1 | > 200 | –
15 | Cc1cc(NC(=O)N2CCOc3ccc(-c4cc(C)nn4C)nc32)cc(C)n1 [Compound 632] | – | > 200 | B (EC1.5 1-25 μM)
16 | Cc1cc(NC(=O)N2CCOc3ccc(-c4cnn(C)c4C)nc32)cc(C)n1 [Compound 572] | – | > 200 | B (EC1.5 1-25 μM)
17 | CCN1CCCN(C(=O)Nc2ccc(F)cn2)c2nc(-c3cccc(Cl)c3)ccc21 [Compound 807] | > 25 | ≤ 200 | –
18 | O=C(Nc1cccc(OCC(O)CO)n1)N1CCOc2ncc(-c3cccc(C(F)(F)F)c3)nc21 (stereo not drawn) [Compound 742] | < 1 | > 200 | –
19 | O=C(Nc1ccncc1)N1CCOc2ccc(-c3ccccc3C(F)(F)F)nc21 [Compound 546] | – | > 200 | B (EC1.5 1-25 μM)
20 | O=C(Nc1ccncc1)N1CCOc2cnc(-c3cccc(N4CCCC4)c3)nc21 [Compound 722] | 1 to 25 | > 200 | –
21 | O=C(Nc1ccccn1)N1CCCCc2ccc(-c3cccc(Cl)c3)nc21 [Compound 754] | 1 to 25 | ≤ 200 | –
22 | O=C1CCCN(C(=O)Nc2ccncc2)c2nc(-c3cccc(Cl)c3)ccc21 [Compound 756] | 1 to 25 | > 200 | –
23 | O=C(Nc1ccncn1)N1CCOc2ccc(-c3cccc(F)c3)nc21 [Compound 514] | – | > 200 | A (EC1.5<1.0 μM)

Other lines, results leading:

Row | EC1.5 (concentration giving 1.5-fold activation) [µM] | Emax [%] | EC1.5 | SMILES
24 | > 25 | ≤ 200 | – | O=C(Nc1ccnc(OC[C@@H](O)CO)n1)N1CCOc2ccc(-c3cccc(C(F)(F)F)c3)nc21 [Compound 732]
25 | < 1 | > 200 | – | CC1(C)CCN(C(=O)Nc2ccncc2)c2nc(-c3cccc(C(F)(F)F)c3)ccc21 [Compound 826, 4,4-dimethyl-N-(pyridin-4-yl)-7-(3-(trifluoromethyl)phenyl)-3,4-dihydro-1,8-naphthyridine-1(2H)-carboxamide]
26 | – | ≤ 200 | B (EC1.5 1-25 μM) | CN1C(=O)CN(C(=O)Nc2cncnc2)c2nc(-c3cccc(C(F)(F)F)c3)ccc21 [Compound 527]
27 | 1 to 25 | > 200 | – | O=C(Nc1ccncc1F)N1CCOc2ncc(-c3cccc(C(F)(F)F)c3)nc21 [Compound 724]
28 | 1 to 25 | ≤ 200 | – | CC1(C)CCN(C(=O)Nc2ccc(F)cn2)c2nc(-c3cccc(C(F)(F)F)c3)ccc21 [Compound 843]
29 | – | > 200 | B (EC1.5 1-25 μM) | Cc1cncc(NC(=O)N2CCCOc3ccc(-c4cccc(C(F)(F)F)c4)nc32)c1 [Compound 576]
30 | 1 to 25 | > 200 | – | Cc1cncc(NC(=O)N2CCOc3ncc(-c4cccc(C(F)(F)F)c4)nc32)c1 [Compound 725]
31 | 1 to 25 | ≤ 200 | – | O=C(Nc1ccncn1)N1CCOc2cnc(-c3cccc(C(F)(F)F)c3)nc21 [Compound 714]
32 | < 1 | > 200 | – | O=C1CCCN(C(=O)Nc2ccccn2)c2nc(-c3cccc(C(F)(F)F)c3)ccc21 [Compound 819]
33 | – | > 200 | B (EC1.5 1-25 μM) | CN1C(=O)CN(C(=O)Nc2ccncc2)c2nc(-c3cccc(C(F)(F)F)c3)ccc21 [Compound 525]
34 | – | > 200 | B (EC1.5 1-25 μM) | Cc1noc(NC(=O)N2CCOc3ccc(-c4cccc(C(F)(F)F)c4)nc32)c1C [Compound 509]
35 | > 25 | ≤ 200 | – | Cc1cnccc1NC(=O)N1CCC(F)(F)c2ccc(-c3cccc(C(F)(F)F)c3)nc21 [Compound 744]
36 | 1 to 25 | ≤ 200 | – | CC1(C)CCN(C(=O)Nc2ncccc2F)c2nc(-c3cccc(C(F)(F)F)c3)ccc21 [Compound 842]
37 | 1 to 25 | > 200 | – | Cc1cnccc1NC(=O)N1CCC(C)c2ccc(-c3cccc(C(F)(F)F)c3)nc21 (stereo not drawn) [Compound 784]
38 | – | > 200 | B (EC1.5 1-25 μM) | O=C(Nc1cccc(N2CCC2)n1)N1CCOc2ccc(-c3cccc(C(F)(F)F)c3)nc21 [Compound 512, N-(6-(azetidin-1-yl)pyridin-2-yl)-6-(3-(trifluoromethyl)phenyl)-2H-pyrido[3,2-b][1,4]oxazine-4(3H)-carboxamide]
39 | 1 to 25 | > 200 | – | O=C(Nc1ccncc1F)N1CCCCc2ccc(-c3cccc(Cl)c3)nc21 [Compound 734]
